Source: patent US10047080B2, “(R)-2-methyl-piperazine derivatives as CXCR3 receptor modulators” (Idorsia Pharmaceuticals Ltd., priority 2015, dated 2018)

Key:
Type in all cases: cell-based
hERG K channel = hERG K channel (Homo sapiens (Human), UniProt Q12809); experiment: hERG Q-Patch assay; settings: CHO cells expressing hERG, K+ tail current
Description: Compounds are evaluated for block of the hERG K channel using CHO cells stably expressing the hERG gene (accession number U04270, bSys, Witterswil, Switzerland) and the QPatch robotic platform (Sophion, Ballerup, Denmark) in single-cell mode at room temperature. Cells are grown in culture flasks at 37° C. in 5% CO2, in culture medium (Ham's F-12 Nutrient Mixture, Invitrogen 21765-029) supplemented with 9% (v/v) fetal calf serum, 0.9% Penicillin/Streptomycin (10,000 U/mL, Invitrogen 15140148), 100 μg/mL Hygromycin B (Invitrogen 10687010). When the cells are ˜80% confluent (every 2-3 days), they are either split for further culture or used for electrophysiology. For further culture, cells are detached with 0.25% Trypsin EDTA solution (Invitrogen 25200-056) and a fraction of the cells (10-30%) is reseeded in culture medium. For electrophysiology, on the experimental day, cells are detached with 0.25% Trypsin EDTA solution and all cells are suspended in suspension medium (293 SFM II, Invitrogen 11686-029) supplemented with 20 mM HEPES and 0.04 mg/mL Trypsin inhibitor. Cells are kept in suspension medium at 32-35° C. in the QPatch robot until use, at which time aliquots are transferred to the extracellular solution (in mM: NaCl 150; KCl 4; CaCl2 1.2; MgCl2 1; HEPES 10; pH 7.4 with NaOH) containing 0.3% v/v DMSO and applied to the test plates. K+ currents are measured with the patch-voltage-clamp technique in the whole-cell configuration with the internal solution (in mM: KCl, 140; NaCl, 10; MgCl2, 1; HEPES, 10; EGTA, 5; pH=7.2 with KOH). Currents are low-pass filtered using the internal Bessel filter of the QPatch robot with a cut-off frequency of 2 kHz and are digitized at 10 kHz. K^+ tail currents are produced from a holding voltage of −80 mV by a 500-ms depolarization to +20 mV followed by a 500-ms repolarization to −40 mV; tail current amplitudes are measured at the end of the repolarization to −40 mV. The pulse pattern is repeated every 10 sec during the experiment, baseline K^+ current is measured after 3 min in extracellular solution, test-solution containing compound is then applied, and K^+ current in presence of compound is measured 3 minutes after application to the cells. The respective test-solution is prepared by (1) dissolving the test-compound in pure DMSO, (2) diluting this DMSO solution in extracellular solution, and (3) adding further DMSO, such that the final test-solution has a concentration of either 300 nM or 3000 nM of the test-compound and contains 0.3% v/v DMSO. Compound effects are quantified as % block by dividing the current in presence of compound by the baseline current; two or three experiments are performed for each compound and the final value represents the mean of the results of each experiment.

human CXCR3A = human CXCR3A (Homo sapiens (Human), UniProt P49682); experiment: FLIPR assay (calcium flux, CXCL10-induced); settings: CHO-K1 cells expressing human CXCR3A coupled to Galpha(16); CXCL10 agonist at 20 nM
Description: The bioactivity of compounds is tested in a fluorometric imaging plate reader (FLIPR: Molecular Devices) using engineered CHO-K1 cells expressing the human CXCR3A (GenBank: AY242128) coupled to a G protein (Galpha(16)). Cells are plated the day prior to bioassay in F12 medium supplemented with 10% FBS and G418 and hygromycin antibiotics to maintain recombinant selection. At the day of bioassay, cells are washed and dye loaded for one hour with Fluo-4-AM (Invitrogen) in Hanks Balanced Salt Solution (Invitrogen), buffered with 20 mM Hepes at pH 7.4 and sodium bicarbonate (0.038%), containing 5 mM probenecid. This buffer, but lacking the dye and containing probenecid at a concentration of 2.5 mM, is also used for washing steps (wash buffer); or lacking both dye and probenecid but supplemented with 0.1% BSA for compound dilution steps (dilution buffer). Cells are washed free of excess dye and 60 microliter of wash buffer is added. Stock solutions of test compounds are made up at a concentration of 10 mM in DMSO, and serially diluted in dilution buffer to concentrations required for inhibition dose response curves. After a 10 minute incubation period at 37° C., 10 microliters of each compound dilution are transferred from a compound plate to the plate containing the recombinant cells in the FLIPR instrument according to the manufacturer's instructions. Following basal readings, 10 microliter CXCL10 agonist at a concentration of 20 nM (from Peprotech) is added, again using the FLIPR instrument. Changes in fluorescence are monitored before and after addition of the test compounds. Emission peak values above base level after CXCL10 addition are exported after base line subtraction.
(§1) The calculated IC50 values may fluctuate depending on the daily assay performance. Fluctuations of this kind are known to those skilled in the art. In the case where IC50 values have been determined several times for the same compound, mean values are given. Data for the FLIPR assay are shown in Table 1 and for the receptor internalization assay (RIA) in Table 2.

CXCR3 = CXCR3 (Homo sapiens (Human), UniProt P49682); experiment: Receptor internalization assay (RIA) in human whole blood; settings: final CXCL10 9 nM, CXCR3 surface expression on CD4 positive cells
Description: Stock solutions of test compounds are made up at a concentration of 10 mM in DMSO, and serially diluted in PBS containing 0.5% BSA to concentrations required for inhibition dose response curves. Diluted compounds are then mixed with an equal volume of CXCL10 (Peprotech) diluted in PBS. Anticoagulated venous human whole blood is added to the mixture, which is then incubated in a CO2 incubator at 37° C. to allow for ligand mediated receptor internalization (final CXCL10 concentration is 9 nM). After 30 min, the blood is mixed with fluorescently labeled CXCR3 and CD4 specific antibodies (Becton Dickinson) and incubated on ice for 10 minutes. Samples are then mixed with BD FACS Lysing Solution (Becton Dickinson) in order to eliminate red blood cells. After washing the cells with PBS containing 0.5% BSA, the samples are then analyzed in a flow cytometer (FACS Canto II, Becton Dickinson). For data analysis using FACSDiva software (Becton Dickinson), the mean fluorescence corresponding to CXCR3 cell surface expression was determined on CD4 positive cells.
as §1

Sequence of CXCR3 (P49682 whole entry): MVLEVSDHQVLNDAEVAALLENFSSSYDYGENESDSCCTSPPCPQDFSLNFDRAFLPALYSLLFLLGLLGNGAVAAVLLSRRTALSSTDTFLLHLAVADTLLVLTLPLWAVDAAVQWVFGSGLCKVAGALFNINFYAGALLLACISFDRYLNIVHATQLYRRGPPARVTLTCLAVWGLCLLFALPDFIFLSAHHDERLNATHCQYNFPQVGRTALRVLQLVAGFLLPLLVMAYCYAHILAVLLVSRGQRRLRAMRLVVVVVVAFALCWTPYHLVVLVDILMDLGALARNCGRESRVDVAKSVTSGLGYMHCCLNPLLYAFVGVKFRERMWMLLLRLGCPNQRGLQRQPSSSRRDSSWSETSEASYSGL
Sequence of human CXCR3A (P49682 whole entry): as above
Sequence of hERG K channel (Q12809 whole entry): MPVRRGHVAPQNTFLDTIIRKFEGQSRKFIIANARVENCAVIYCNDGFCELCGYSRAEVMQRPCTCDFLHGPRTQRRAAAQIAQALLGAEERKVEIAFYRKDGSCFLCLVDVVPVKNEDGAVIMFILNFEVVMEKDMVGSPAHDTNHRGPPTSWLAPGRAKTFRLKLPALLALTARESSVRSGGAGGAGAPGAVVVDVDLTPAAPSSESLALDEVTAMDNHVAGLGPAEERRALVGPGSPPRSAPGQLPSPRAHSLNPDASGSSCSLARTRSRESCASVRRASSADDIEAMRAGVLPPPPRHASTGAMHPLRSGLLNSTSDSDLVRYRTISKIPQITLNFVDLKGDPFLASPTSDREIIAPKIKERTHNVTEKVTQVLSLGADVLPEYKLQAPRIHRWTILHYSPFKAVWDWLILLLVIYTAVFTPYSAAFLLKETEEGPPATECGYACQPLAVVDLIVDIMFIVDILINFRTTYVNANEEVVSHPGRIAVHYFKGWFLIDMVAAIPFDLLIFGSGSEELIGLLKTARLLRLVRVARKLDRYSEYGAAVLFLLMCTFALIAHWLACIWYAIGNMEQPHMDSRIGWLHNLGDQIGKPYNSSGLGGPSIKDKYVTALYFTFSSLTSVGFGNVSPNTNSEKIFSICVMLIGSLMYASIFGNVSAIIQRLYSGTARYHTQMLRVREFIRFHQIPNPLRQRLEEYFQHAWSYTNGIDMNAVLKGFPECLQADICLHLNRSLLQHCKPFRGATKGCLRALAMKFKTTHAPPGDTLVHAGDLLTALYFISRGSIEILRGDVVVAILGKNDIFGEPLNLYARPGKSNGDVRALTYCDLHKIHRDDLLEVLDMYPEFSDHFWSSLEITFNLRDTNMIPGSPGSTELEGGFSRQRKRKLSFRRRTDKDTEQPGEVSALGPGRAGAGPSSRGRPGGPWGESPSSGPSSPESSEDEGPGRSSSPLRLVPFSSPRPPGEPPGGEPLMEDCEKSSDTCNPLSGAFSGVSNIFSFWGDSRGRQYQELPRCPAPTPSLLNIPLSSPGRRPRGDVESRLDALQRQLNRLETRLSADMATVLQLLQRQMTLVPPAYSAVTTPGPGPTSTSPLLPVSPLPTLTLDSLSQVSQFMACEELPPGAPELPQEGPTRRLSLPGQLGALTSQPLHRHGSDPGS

SMILES	IC50 (human CXCR3A) [nM]	IC50 (CXCR3) [nM]	% block (hERG K channel; concentration 300 nM) [%]	% block (hERG K channel; concentration 3000 nM) [%]
CC(C)c1ncn(CC(=O)N2CCN(c3sc(C(F)(F)F)nc3-c3cnc(OC4CCC4)nc3)C[C@H]2C)n1 [Example 14, 1-{(R)-4-[4-(2-Cyclobutoxy-pyrimidin-5-yl)-2-trifluoromethyl-thiazol-5-yl]-2-methyl-piperazin-1-yl}-2-(3-isopropyl-[1,2,4]triazol-1-yl)-ethanone]	1.2	459	4	27
CC(C)c1ncn(CC(=O)N2CCN(c3sc(C(F)(F)F)nc3-c3cnc(C4CC4)nc3)C[C@H]2C)n1 [Example 16, 1-{(R)-4-[4-(2-Cyclopropyl-pyrimidin-5-yl)-2-trifluoromethyl-thiazol-5-yl]-2-methyl-piperazin-1-yl}-2-(3-isopropyl-[1,2,4]triazol-1-yl)-ethanone]	0.7	524	1	25
C[C@@H]1CN(c2sc(C(F)(F)F)nc2-c2cnc(C3CC3)nc2)CCN1C(=O)Cn1cnc(C(C)(C)C)n1 [Example 17, 2-(3-tert-Butyl-[1,2,4]triazol-1-yl)-1-{(R)-4-[4-(2-cyclopropyl-pyrimidin-5-yl)-2-trifluoromethyl-thiazol-5-yl]-2-methyl-piperazin-1-yl}-ethanone]	4.6	679	0	23

Continued by falling IC50 (human CXCR3A), values first:

IC50 (human CXCR3A) [nM]	IC50 (CXCR3) [nM]	SMILES	% block (hERG K channel; concentration 300 nM) [%]	% block (hERG K channel; concentration 3000 nM) [%]
5.2	462	Cc1ncn(CC(=O)N2CCN(c3sc(C(F)(F)F)nc3-c3cnc(C4CC4)nc3)C[C@H]2C)n1 [Example 21, 1-{(R)-4-[4-(2-Cyclopropyl-pyrimidin-5-yl)-2-trifluoromethyl-thiazol-5-yl]-2-methyl-piperazin-1-yl}-2-(3-methyl-[1,2,4]triazol-1-yl)-ethanone]	3	17
3.1	1390	COCc1ncn(CC(=O)N2CCN(c3sc(C(F)(F)F)nc3-c3cnc(C4CC4)nc3)C[C@H]2C)n1 [Example 18, 1-{(R)-4-[4-(2-Cyclopropyl-pyrimidin-5-yl)-2-trifluoromethyl-thiazol-5-yl]-2-methyl-piperazin-1-yl}-2-(3-methoxymethyl-[1,2,4]triazol-1-yl)-ethanone]	10	22
2.5	190	CCc1ncn(CC(=O)N2CCN(c3sc(C(F)(F)F)nc3-c3cnc(C4CC4)nc3)C[C@H]2C)n1 [Example 15, 1-{(R)-4-[4-(2-Cyclopropyl-pyrimidin-5-yl)-2-trifluoromethyl-thiazol-5-yl]-2-methyl-piperazin-1-yl}-2-(3-ethyl-[1,2,4]triazol-1-yl)-ethanone]	3	27
1.8	211	CCOc1ncc(-c2nc(C(F)(F)F)sc2N2CCN(C(=O)Cn3cnc(C)n3)[C@H](C)C2)cn1 [Example 19, 1-{(R)-4-[4-(2-Ethoxy-pyrimidin-5-yl)-2-trifluoromethyl-thiazol-5-yl]-2-methyl-piperazin-1-yl}-2-(3-methyl-[1,2,4]triazol-1-yl)-ethanone]	9	14
1.6	189	Cc1ncn(CC(=O)N2CCN(c3sc(C(F)(F)F)nc3-c3cnc(C(F)(F)F)nc3)C[C@H]2C)n1 [Example 20, 2-(3-Methyl-[1,2,4]triazol-1-yl)-1-{(R)-2-methyl-4-[2-trifluoromethyl-4-(2-trifluoromethyl-pyrimidin-5-yl)-thiazol-5-yl]-piperazin-1-yl}-ethanone]	2	18
